Experimental data reported in the supplement of paper PMC10307832.

Key:
Assay in all cases: relative viability (nuclei count vs DMSO), 5 days (fraction); higher = more cells survive
NCI-H1793 = system: NCI-H1793
Method in brief: (§1)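 One day after seeding in 1536-well plates, lung cancer cell lines were dosed by pin tool. Dosing was either single-drug or a fixed anchor-drug dose plus five library-drug doses (not always all listed) in √10 steps. After 5 days, nuclei were stained in one fix-and-stain step and counted on 4× images, and relative viability is the nuclei count of treated wells over that of vehicle wells, given as the median of duplicate plates.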

NCI-H2126 = system: NCI-H2126
Method in brief: as §1

HARA = system: HARA
Method in brief: as §1

NCI-H2023 = system: NCI-H2023
Method in brief: as §1

NCI-H1915 = system: NCI-H1915
Method in brief: as §1

PC-3 [JPC-3] = system: PC-3 [JPC-3]
Method in brief: as §1

NCI-H441 = system: NCI-H441
Method in brief: as §1

LU99A = system: LU99A
Method in brief: as §1

NCI-H460 = system: NCI-H460
Method in brief: as §1

NCI-H650 = system: NCI-H650
Method in brief: as §1

NCI-H1395 = system: NCI-H1395
Method in brief: as §1

NCI-H23 = system: NCI-H23
Method in brief: as §1

A-427 = system: A-427
Method in brief: as §1

LOU-NH91 = system: LOU-NH91
Method in brief: as §1

NCI-H1755 = system: NCI-H1755
Method in brief: as §1

NCI-H322M = system: NCI-H322M
Method in brief: as §1

BEN = system: BEN
Method in brief: as §1

NCI-H1944 = system: NCI-H1944
Method in brief: as §1

NCI-H1666 = system: NCI-H1666
Method in brief: as §1

SK-LU-1 = system: SK-LU-1
Method in brief: as §1

LCLC-97TM1 = system: LCLC-97TM1
Method in brief: as §1

LXF-289 = system: LXF-289
Method in brief: as §1

O=C(O)CCCCC(CCSCc1ccccc1)SCc1ccccc1 (centres undefined) [CPI-613] + C[C@]1(O)C[C@@H](c2nc(-c3ccc4ccc(-c5ccccc5)nc4c3)c3c(N)nccn32)C1 [Linsitinib] (partner 1 µM)
relative viability (NCI-H1793; first compound 5 µM): 0.822
relative viability (NCI-H1793; first compound 50 µM): 0.823
relative viability (NCI-H1793; first compound 158.11 µM): 0.774
relative viability (NCI-H1793; first compound 500 µM): 0.102
relative viability (NCI-H2126; first compound 5 µM): 0.721
relative viability (NCI-H2126; first compound 15.81 µM): 0.751
relative viability (NCI-H2126; first compound 50 µM): 0.712
relative viability (NCI-H2126; first compound 158.11 µM): 0.534
relative viability (NCI-H2126; first compound 500 µM): 0.567
relative viability (HARA; first compound 5 µM): 0.906
relative viability (HARA; first compound 15.81 µM): 0.864
relative viability (HARA; first compound 50 µM): 0.991
relative viability (HARA; first compound 158.11 µM): 0.44
relative viability (HARA; first compound 500 µM): 0.0277
relative viability (NCI-H2023; first compound 5 µM): 0.614
relative viability (NCI-H2023; first compound 15.81 µM): 0.698
relative viability (NCI-H2023; first compound 50 µM): 0.668
relative viability (NCI-H2023; first compound 158.11 µM): 0.243
relative viability (NCI-H2023; first compound 500 µM): 0.0069
relative viability (NCI-H1915; first compound 5 µM): 1.11
relative viability (NCI-H1915; first compound 15.81 µM): 1.07
relative viability (NCI-H1915; first compound 50 µM): 1.04
relative viability (NCI-H1915; first compound 158.11 µM): 0.964
relative viability (NCI-H1915; first compound 500 µM): 0.626
relative viability (PC-3 [JPC-3]; first compound 5 µM): 0.953
relative viability (PC-3 [JPC-3]; first compound 15.81 µM): 0.854
relative viability (PC-3 [JPC-3]; first compound 50 µM): 0.883
relative viability (PC-3 [JPC-3]; first compound 158.11 µM): 0.588
relative viability (PC-3 [JPC-3]; first compound 500 µM): 0.64
relative viability (NCI-H441; first compound 5 µM): 0.521
relative viability (NCI-H441; first compound 15.81 µM): 0.59
relative viability (NCI-H441; first compound 50 µM): 0.605
relative viability (NCI-H441; first compound 158.11 µM): 0.255
relative viability (NCI-H441; first compound 500 µM): 0.132
relative viability (LU99A; first compound 5 µM): 0.519
relative viability (LU99A; first compound 15.81 µM): 0.461
relative viability (LU99A; first compound 50 µM): 0.561
relative viability (LU99A; first compound 158.11 µM): 0.273
relative viability (LU99A; first compound 500 µM): 0.0476
relative viability (NCI-H460; first compound 5 µM): 0.751
relative viability (NCI-H460; first compound 15.81 µM): 0.737
relative viability (NCI-H460; first compound 50 µM): 0.78
relative viability (NCI-H460; first compound 158.11 µM): 0.125
relative viability (NCI-H460; first compound 500 µM): 0.0075
relative viability (NCI-H650; first compound 5 µM): 0.905
relative viability (NCI-H650; first compound 15.81 µM): 0.807
relative viability (NCI-H650; first compound 50 µM): 0.975
relative viability (NCI-H650; first compound 158.11 µM): 0.746
relative viability (NCI-H650; first compound 500 µM): 0.747
relative viability (NCI-H1395; first compound 5 µM): 1.09
relative viability (NCI-H1395; first compound 15.81 µM): 0.961
relative viability (NCI-H1395; first compound 50 µM): 1.08
relative viability (NCI-H1395; first compound 158.11 µM): 1.1
relative viability (NCI-H1395; first compound 500 µM): 1.04
relative viability (NCI-H23; first compound 5 µM): 0.596
relative viability (NCI-H23; first compound 15.81 µM): 0.567
relative viability (NCI-H23; first compound 50 µM): 0.395
relative viability (NCI-H23; first compound 158.11 µM): 0.383
relative viability (NCI-H23; first compound 500 µM): 0.0224
relative viability (A-427; first compound 5 µM): 1.1
relative viability (A-427; first compound 15.81 µM): 1.12
relative viability (A-427; first compound 50 µM): 1.02
relative viability (A-427; first compound 158.11 µM): 0.847
relative viability (A-427; first compound 500 µM): 0.618
relative viability (LOU-NH91; first compound 5 µM): 0.918
relative viability (LOU-NH91; first compound 15.81 µM): 0.907
relative viability (LOU-NH91; first compound 50 µM): 1.06
relative viability (LOU-NH91; first compound 158.11 µM): 0.971
relative viability (LOU-NH91; first compound 500 µM): 0.959
relative viability (NCI-H1755; first compound 5 µM): 0.991
relative viability (NCI-H1755; first compound 15.81 µM): 0.977
relative viability (NCI-H1755; first compound 50 µM): 0.9
relative viability (NCI-H1755; first compound 158.11 µM): 0.888
relative viability (NCI-H1755; first compound 500 µM): 0.152
relative viability (NCI-H322M; first compound 5 µM): 0.832
relative viability (NCI-H322M; first compound 15.81 µM): 0.721
relative viability (NCI-H322M; first compound 50 µM): 0.931
relative viability (NCI-H322M; first compound 158.11 µM): 0.693
relative viability (NCI-H322M; first compound 500 µM): 0.634
relative viability (BEN; first compound 5 µM): 0.881
relative viability (BEN; first compound 15.81 µM): 0.784
relative viability (BEN; first compound 50 µM): 0.941
relative viability (BEN; first compound 158.11 µM): 0.747
relative viability (BEN; first compound 500 µM): 0.72
relative viability (NCI-H1944; first compound 5 µM): 1.31
relative viability (NCI-H1944; first compound 15.81 µM): 1.15
relative viability (NCI-H1944; first compound 50 µM): 1.14
relative viability (NCI-H1944; first compound 158.11 µM): 0.968
relative viability (NCI-H1944; first compound 500 µM): 0.787
relative viability (NCI-H1666; first compound 5 µM): 0.783
relative viability (NCI-H1666; first compound 15.81 µM): 0.907
relative viability (NCI-H1666; first compound 50 µM): 0.789
relative viability (NCI-H1666; first compound 158.11 µM): 0.172
relative viability (NCI-H1666; first compound 500 µM): 0.167
relative viability (SK-LU-1; first compound 5 µM): 1.04
relative viability (SK-LU-1; first compound 15.81 µM): 0.93
relative viability (SK-LU-1; first compound 50 µM): 0.893
relative viability (SK-LU-1; first compound 158.11 µM): 0.177
relative viability (SK-LU-1; first compound 500 µM): 0.122
relative viability (LCLC-97TM1; first compound 5 µM): 0.186
relative viability (LCLC-97TM1; first compound 15.81 µM): 0.167
relative viability (LCLC-97TM1; first compound 50 µM): 0.199
relative viability (LCLC-97TM1; first compound 158.11 µM): 0.16
relative viability (LCLC-97TM1; first compound 500 µM): 0.0574
relative viability (LXF-289; first compound 5 µM): 0.997
relative viability (LXF-289; first compound 15.81 µM): 0.969
relative viability (LXF-289; first compound 50 µM): 0.921
relative viability (LXF-289; first compound 158.11 µM): 0.269
relative viability (LXF-289; first compound 500 µM): 0.0192
